Here are results for nine compounds from article PMC6514670, “Field-Based Affinity Optimization of a Novel Azabicyclohexane Scaffold HIV-1 Entry Inhibitor” (Molecules, 2019).

For data set [1], the target named is B41 SOSIP.664 gp140 trimer (Human immunodeficiency virus type 1, UniProt B3UES2, A505C/E513R/I563P/INS515RR/K514R/T609C). Type of data set: binding, HIV-1.
A short description of data set [2]: Cellular toxicity (Cell Counting Kit-8). The format is cell-based, Human. As to conditions: human, U87.CD4.CCR5/CXCR4 cells; 48 h, CCK-8, 0.1–1000 µM. The protocol:
(§1) The viability of the U87.CD4.CCR5/CXCR4 cells was determined using the Cell Counting Kit-8 cell proliferation and cytotoxicity assay (Dojindo Molecular Technologies, Rockville, MD, USA) per the manufacturer’s instructions. U87.CD4.CCR5/CXCR4 cells (1.2 × 10^4 cells/well) were seeded in 96-well tissue culture plates (Olympus Plastics, San Diego, CA, USA). After 24 h, cells were treated with compound (0.1–1000 µM) or DMSO (Sigma) for 48 h at 37 °C. Subsequently, 10 µL of the CCK-8 solution was added to each well and incubated for 4 h at 37 °C. Following the 4 h incubation, the absorbance at 450 nm was measured in a Multiskan™ GO Microplate Spectrophotometer (Thermo Scientific). Untreated cells were used as a background control and 0.1% SDS treated cells were used as a positive control.

In data set [3] the test system is U87.CD4.CCR5/CXCR4 cells. Description: Cellular toxicity (Cell Counting Kit-8). Type of data set: cell-based, Human. The following applies: CC50 / median IC50. The protocol:
as §1

Data set [4] concerns HIV-1B41 Env pseudotyped HIV-1. Put plainly: Single-round infection assay, B41 Env pseudotyped virus. The following applies: Human immunodeficiency virus 1, U87/CD4/CCR5, 48 h, read-out: IC50 B41.
Data set [5] deals with HIV-1JRFL Env pseudotyped HIV-1. Description: Single-round infection assay, JRFL Env pseudotyped virus. As to conditions: Human immunodeficiency virus 1, U87/CD4/CCR5, 48 h, read-out: IC50 JRFL.
Data set [6] relates to HIV-1YU-2 Env pseudotyped HIV-1. Put plainly: Single-round infection assay, YU-2 Env pseudotyped virus. The following applies: Human immunodeficiency virus 1, U87/CD4/CCR5, 48 h, read-out: IC50 YU-2.
Data set [7] has as its system HIV-1HxBc2 Env pseudotyped HIV-1. Put plainly: Single-round infection assay, HxBc2 Env pseudotyped virus. As to conditions: Human immunodeficiency virus 1, U87.CD4.CXCR4, 48 h, read-out: IC50 HxBc2.
Data set [8] concerns HIV-1JRCSF Env pseudotyped HIV-1. Description: Single-round infection assay, JRCSF Env pseudotyped virus. As to conditions: Human immunodeficiency virus 1, U87/CD4/CCR5, 48 h, read-out: IC50 JRCSF.
For data set [9], the system named is HIV-1B41, HIV-1HxBc2, HIV-1JRCSF, HIV-1JRFL, and HIV-1YU-2 Env pseudotyped HIV-1. Description: Single-round infection assay, summary over the five Env pseudotypes. The following applies: Human immunodeficiency virus 1, read-out: Median IC50.

In the case of `COc1cnc(-n2cnc(C)n2)c2[nH]cc(C(=O)C(=O)N3CC4CN(C(=O)c5ccccc5)CC4C3)c12` (stereo not shown) [SC11], in data set [1], the ka is reported as 3.83 ± 1.12 × 10^3 M^−1s^−1 and the kd is recorded as 5.02 ± 2.67 × 10^−4 s^−1.
The like results for `COc1cnc(-n2cnc(C)n2)c2[nH]cc(C(=O)C(=O)N3CC=C(CNC(=O)c4ccccc4)CC3)c12` [SC45] were, in that order, 1.38 ± 0.045 × 10^4 M^−1s^−1 and 1.52 ± 0.0294 × 10^−2 s^−1.
Turning to `Nc1nc(-c2ccc(F)c3c(C(=O)C(=O)NC4C5CN(C(=O)c6ccccc6)CC54)c[nH]c23)no1` (stereo not shown) [SC55, 2-(7-(5-amino-1,2,4-oxadiazol-3-yl)-4-fluoro-1H-indol-3-yl)-N-(3-benzoyl-3-azabicyclo[3.1.0]hexan-6-yl)-2-oxoacetamide], the CC50 at 48 h in data set [2] was found to be 73000 ± 14000 nM. Further, in data set [3], the “Therapeutic Index (CC50/IC50)” value was 75.85. The IC50 in data set [4] amounted to 2020 ± 810 nM; in [5], 450 ± 330 nM; in [6], 1150 ± 810 nM; in [7] it was 730 ± 560 nM; in data set [8], 450 ± 350 nM; in data set [9] it was 960 ± 590 nM.
Take `CNC(=O)c1ncc(OC)c2c(C(=O)C(=O)NC3C4CN(C(=O)c5ccccc5)CC43)c[nH]c12` (stereo not shown) [SC49]: in data set [1], the ka was 9.49 ± 1.6 × 10^2 M^−1s^−1. In addition, the kd in data set [1] was 3.43 ± 0.36 × 10^−2 s^−1. This compound showed a CC50 at 48 h in [2] of 326000 ± 81000 nM. Moreover, the “Therapeutic Index (CC50/IC50)” value in [3] was 7.31. Besides, the IC50 in data set [4] came out at 26000 ± 19000 nM; in [5], 33300 ± 11600 nM; in data set [6] it was 57200 ± 26500 nM; in data set [7], 62000 ± 1400 nM; in data set [9] it was 45000 ± 15000 nM.
For `COc1cnc(-n2cnc(C)n2)c2[nH]cc(C(=O)C(=O)N3CC(CCC(=O)c4ccccc4)C3)c12` [SC15], in data set [1], the ka is given as 3.01 ± 0.188 × 10^5 M^−1s^−1 and the kd is 5.44 ± 0.677 × 10^−3 s^−1.
In the case of `O=C(NC1C2CN(C(=O)c3ccccc3)CC21)C(=O)c1c[nH]c2c(-c3cccnc3)ncc(F)c12` (stereo not shown) [SC50], the CC50 at 48 h in data set [2] was found to be 120000 ± 18000 nM. Also, the “Therapeutic Index (CC50/IC50)” value in [3] stood at 6.63. For the same compound, the IC50 stood at 7100 ± 4200 nM in data set [4]; 24300 ± 6200 nM in [5]; 22600 ± 4200 nM in [6]; 6900 ± 5200 nM in [7]; 28900 ± 5620 nM in data set [8]; 18000 ± 9000 nM in data set [9].
As for `COc1cnc(-n2cnc(C)n2)c2[nH]cc(C(=O)C(=O)NC3C4CN(C(=O)c5ccccc5)CC43)c12` (stereo not shown) [SC28], the ka in data set [1] is recorded as 1.39 ± 0.14 × 10^4 M^−1s^−1. In data set [1], the kd is recorded as 6.99 ± 0.43 × 10^−3 s^−1. In addition, the CC50 at 48 h in data set [2] was determined as 190000 ± 54000 nM. Besides, the “Therapeutic Index (CC50/IC50)” value in [3] worked out at 1291.21. Moreover, the IC50 in data set [4] came out at 35 ± 6.2 nM; in data set [5] it was 170 ± 50 nM; in data set [6], 480 ± 50 nM; in data set [7], 21 ± 5 nM; in data set [8], 26 ± 9 nM; in data set [9] it was 150 ± 170 nM.
`COc1ccc(-c2noc(N)n2)c2[nH]cc(C(=O)C(=O)NC3C4CN(C(=O)c5ccccc5)CC43)c12` (stereo not shown) [SC56, 2-(7-(5-Amino-1,2,4-oxadiazol-3-yl)-4-methoxy-1H-indol-3-yl)-N-(3-benzoyl-3-azabicyclo[3.1.0]hexan-6-yl)-2-oxoacetamide]: the “improvement in KD (affinity) in comparison to parental SC28” value in data set [1] is recorded as 1000 fold. Moreover, the ka in [1] is 1.22 ± 0.067 × 10^7 M^−1s^−1. Moreover, in data set [1], the kd is on record as 6.39 ± 0.31 × 10^−3 s^−1. Further, the SPR surface saturation entry in [1] (12.5 µM and 6.25 µM, 13000 RUs trimer immobilized, theoretical Rmax 41 RUs) is “saturate the surface”. Moreover, the “increase of ka parameter in comparison to SC28” value in data set [1] (SPR) was 1000 factor. Further, in [2], half-maximal cytotoxicity (CC50 at 48 h) was put at 94000 ± 10000 nM. For the same compound, the “Therapeutic Index (CC50/IC50)” value in data set [3] turned out to be 1344.71. For the same compound, the IC50 in data set [4] was determined as 51 ± 8 nM; in [5], 130 ± 15 nM; in data set [6], 110 ± 49 nM; in data set [7], 11 ± 3 nM; in data set [8], 46 ± 9 nM; in data set [9], 69.8 ± 45 nM.
Consider `C=C(C(=O)NC1C2CN(C(=O)c3ccccc3)CC21)n1ccc2c(-n3cnc(C)n3)nc3ccnn3c21` (stereo not shown) [SC52, N-(3-benzoyl-3-azabicyclo[3.1.0]hexan-6-yl)-2-(5-(3-methyl-1H-1,2,4-triazol-1-yl)-8H-pyrazolo[1,5-a]pyrrolo[3,2-e]pyrimidin-8-yl)acrylamide], for which, in [2], the CC50 at 48 h was 9200 ± 1100 nM. Besides, the “Therapeutic Index (CC50/IC50)” value in [3] came out at 8.65. Besides, the IC50 in data set [4] came out at 430 ± 100 nM; in [6] it was 1350 ± 440 nM; in data set [7], 440 ± 170 nM; in data set [8], 2020 ± 250 nM; in [9] it was 1060 ± 668 nM.
